This is an account of results in patent US20050163801A1, “Method of inducing apoptosis and compositions therefor” (Kyowa Engineering Co., Ltd., priority 2001, published 2005).

Common to all, as to assay type: cell-based
The test system of assay [1] is dendric cells (DC) derived from human peripheral blood monocytes. Nature of the assay: Immune activation activity: induction of dendritic cells from peripheral blood monocytes, CD80 expression by flow cytometry. The settings on record: for DCs with increase in expression of CD80: analysed on seventh day. From the text: Dendritic cells are involved in the establishment of immunity. Dendritic cells may also be called arborescent cells, dendritic leukocyte, or D cells. This is the generic term for cell groups having dendritic form derived from myelocytes distributed in various tissue organs in the living body except for the brain. The cell groups include lymphoid dendritic cells, Langerhans cells, veil cells, inter-connected cells, and interstitional cells. Accompanying an inflammation response caused by invasion of foreign matter, the cells perform pinocytosis, and move from a local spot via the vas afferens to an associated lymph node or to the spleen through bloodstream. The cells are known to start an immune response after they reach a T cell-dependent region by presenting an antigen in a form combined with class II antigen and by activating specific T cells. Namely, the cells play an important role in the immune system. In the present example, the immune activation activity of ABMK0415 and ABMK6873 were confirmed by assaying the induction power of monocytes to dendritic cells.
Peripheral blood of two healthy people was used as a material with donor consent.
PBMC were separated from a whole blood specimen which was collected with heparinization by a Ficoll-Paque density centrifugal separation method.
ABMK0415 and ABMK6873 were used as test samples. ABMK0415 and ABMK6873 were respectively dissolved in culture media of cells used for tests (10% FCS added RPMI-1640, 5% human AB serum added RPMI-1640) such that each mixture has a concentration of 200 mg/ml. The mixtures were filter-sterilized through a filter having a pore diameter of 0.22 μm to obtain test samples.
An effect of immune activation of novel compounds was examined in vittro through induction power for dendric cells (DC) derived from human peripheral blood monocytes.
PBMC was processed with a dish treatment for one hour with a carbon dioxide gas incubator. Thus, a monocyte-rich attachment cell fraction was obtained. The cells obtained were cultured in 5% human AB serum added RPMI-1640 (NIKKEN BIOLOGICAL MEDICAL RESEARCH), in the presence of 500 U/ml of GM-CSF (DIACLONE Research) and IL-4(BD Biosciences).
For culturing, a dish (NUNC) having a diameter of 3.5 cm was used. On the sixth day of culture, Picibanil and the novel compound were added such that the final concentration is 0.1 KE/ml for Picibanil, and 200 μg/ml for ABMK0415and ABMK6873. Picibanil (Chugai Pharmaceutical Co., Ltd.) was used as a positive control which has a DC induction power. […]
All DCs in the dish were collected on the seventh day after the culture started. The surface antigen thereof was analyzed by flow cytometry using a monoclonal antibody (anti-CD80; BD Bioscience). […]
For orientation: Flow cytometry measures light scatter and fluorescence of single cells or particles in a stream.

A further assay concerns HL-60 cell lines. Briefly: Apoptosis inducing activity (Test 3), TUNEL method. As to conditions: culture for two days. Here is the method: 3. Apoptosis inducing activity (Test 3): Measurement was performed using a terminal deoxynucleotidyl transferase (TdT)-mediated deoxyuridine triphosphate (dUTP)-biotin nick end-labeling method (TUNEL method). The TUNEL method is a method for identifying apoptosis on a tissue slice reported by Gavrieli et al. in 1992 (Yael Gavrieli et al., The Journal of Cell Biology, vol. 119, No.3, November, 1992, p. 493-501). The method is known to be a method which enables observation of apoptosis at the individual cell level at various states of morbidity and allows comparison with morphology changes. The TUNEL method was performed with HL-60 cell lines using Apoptosis in situ Detection Kit wako (Wako Pure Chemical Industries, Ltd.), according to the method of Gavrieli et al., supra.
The results of FIG. 9 show results measured for respective test groups. […] Based on the above results, cell death of HL60 cell lines by ABMK-22 are confirmed to be death caused by the induction of apoptosis.
For identifying the ingredient having the apoptosis induction activity in ABMK-22 obtained in Example 2, ABMK-22 was further purified and fractionated. The obtained ingredient was subjected to the method described in section “3. […]
Next, the apoptosis induction activity of a ly-ophilized powder of ABMK0415 and ABMK6873 were measured as described in section “3. […]

For assay [2], the system named is HL60 cell line. Nature of the assay: Cell growth suppression activity (Test 1), cell number by counting chamber. As for the experimental part:
1. Cell growth suppression activity (Test 1): For assay, the Collagen gel droplet embedded culture-drug sensitivity test (CD-DST method) and a counting chamber were used.
A method using a counting chamber was performed following the method described in Rinsho Kensaho Teiyo (Kanai's Manual of Clinical Laboratory Medicine), 30th Ed. (Aug. 20, 1993; Kanehara & Co., Ltd.; Tokyo).
Based on the results of measurement using HL60 cell lines, it became clear that the CD-DST method is not suitable for measuring the growth state of suspended cells. Therefore, the cell growth suppression activity was measured using a counting chamber.
First, growth of HL60 cell lines was examined in the presence of ABMK-22 at various concentrations to obtain a growth curve of the HL60 line. More specifically, an initial number of cells of HL 60 cell lines was set to be 200,000/ mL. ABMK-22 was added to have concentrations of 0.1, 0.25, 0.5, 0.75, 1, 2, 2.5, 3, 4and 5 mg/1 mL, respectively and cultured. The number of the cells was measured over time for four days.
Each of the symbols in FIG. 1 indicates the result of measurement of the number of the cells (number/ml) in the presence of ABMK-22 at the concentration of the number indicated in the lower part of FIG. 1 by the symbols. […]

For assay [3], the system named is HL60 cell line. Briefly: Cell differentiation inducing activity (Test 2), NBT reduction. As to conditions: used by itself; NBT reducing power. As for the experimental part:
2. Cell differentiation inducing activity (Test 2): Evaluation was made using Nitro blue tetrazolium (NBT) reduction power. NBT reduction was performed in accordance with the method of S. J. Collins et al. (Int. J. Cancer: 25, pages 213-218 (1980)). In brief, the method is as follows: about 2×10^5 HL60 cells were pelleted, and washed in RPMI-1640 medium. Then, the cells were suspended in RPMI-1640 medium containing 0.1% NBT and 100 ng/ml of phorbol ester (TPA), and cultured for forty minutes at 37° C. The resultant culture was observed under microscope and cells containing blue-black deposits were assessed as differentiated cells. In the presence of ABMK-22 at various concentrations, HL60 cells were cultured for four days and the differentiation inducing power of ABMK-22 was measured. The results of measuring NBT reducing power, which is an indicator of differentiation of a HL60 cell line under each concentration, are shown in FIG. 7. […] At a concentration of 4 mg/mL, about 33% of the cells that were alive were differentiated.

On to `N[C@@H](CCC(=O)NNc1ccc(C=O)cc1)C(=O)O` [ABMK6873], for which, in assay [1] (200 μg/ml added on sixth day), the “expression induction of CD80 molecules” value is “remarkably strong expression induction of CD80 molecules” and the “DCs with increase in expression of CD80” value is recorded as “about 92%”. Moreover, the DC inducing power entry in assay [1] (compared with Picibanil) is reported as “stronger than that of Picibanil”. The “cells in which apoptosis was induced (apoptosis positive cells)” value in the assay on HL-60 cell lines (2.7×10^−4M) was “about 70%”. Moreover, in the assay with HL60 cell line [2] (2.7×10^−4M), the “growth of HL-60 cells” value is listed as “remarkably suppressed”. In the assay with HL60 cell line [2] (various concentrations (2.07×10^−6M to 2.07×10^−4M ABMK0415; 2.7×10^−6M to 2.7×10^−4M ABMK6873)), the “growth of HL-60 cells” value is on record as “suppress growth of HL-60 cells in nearly a concentration-dependent manner”.
Regarding `O=Cc1ccc(CO)n1CCCC(=O)O` [ABMK0415, N-(3-carboxypropyl)-2-formyl-5-hydroxy-methylpyrrole], in assay [1] (200 μg/ml added on sixth day), the “DCs with increase in expression of CD80” value is on record as “about 20%”. Also, the “cells in which apoptosis was induced (apoptosis positive cells)” value in the assay with HL-60 cell lines (2.07×10^−4M) is listed as “about 35%”.
With `C=C1/C(=C\C=C2/CCC[C@]3(C)[C@@H]([C@H](C)CCCC(C)(C)O)CC[C@@H]23)C[C@@H](O)C[C@@H]1O` [VD3, 1α, 25(OH)2D3], the “concentration at which the agent by itself does not exhibit cell differentiation induction activity” value in the assay on HL60 cell line [3] is on record as ≤ 10^−10 M.
The same measure, in the same setting: in the case of `CC1=C(/C=C/C(C)=C/C=C/C(C)=C/C(=O)O)C(C)(C)CCC1` [ATRA, all-trans retinoic acid] it was ≤ 10^−9 M.
